Data reported in paper PMC10408569, “Recruitment of hexahydroquinoline as anticancer scaffold targeting inhibition of wild and mutants EGFR (EGFR^WT, EGFR^T790M, and EGFR^L858R)” (Journal of Enzyme Inhibition and Medicinal Chemistry, 2023).

Legend:
Test in all cases: NCI-60 anticancer screening (SRB)
Format in all cases: cell-based
SW-620 = details: Homo sapiens; SW-620, colon cancer; one dose 10 μM; read-out: Growth Inhibition Percentage (GI %)
786-0 = details: Homo sapiens; 786-0, renal cancer; one dose 10 μM; read-out: Growth Inhibition Percentage (GI %)
MCF7 = details: Homo sapiens; MCF7, breast cancer; one dose 10 μM; read-out: Growth Inhibition Percentage (GI %)
T-47D = details: Homo sapiens, T47D, breast cancer, one dose 10 μM, read-out: Growth Inhibition Percentage (GI %)
MDA-MB-231 = details: Homo sapiens; MDA-MB-231, breast cancer; one dose 10 μM; read-out: Growth Inhibition Percentage (GI %)
IGROV1 = details: Homo sapiens, IGROV-1; IGROV1, ovarian cancer; one dose 10 μM; read-out: Growth Inhibition Percentage (GI %)
TK-10 = details: Homo sapiens; TK-10, renal cancer; one dose 10 μM; read-out: Growth Inhibition Percentage (GI %)
CCRF-CEM = details: Homo sapiens, leukemia, one dose 10 μM, read-out: Growth Inhibition Percentage (GI %)
HCT-15 = details: Homo sapiens; HCT-15, colon cancer; one dose 10 μM; read-out: Growth Inhibition Percentage (GI %)
SNB-75 = details: Homo sapiens; SNB-75, CNS cancer; one dose 10 μM; read-out: Growth Inhibition Percentage (GI %)
SK-MEL-2 = details: Homo sapiens; SK-MEL-2, melanoma; one dose 10 μM; read-out: Growth Inhibition Percentage (GI %)
SK-OV-3 = details: Homo sapiens; SK-OV-3, ovarian cancer; one dose 10 μM; read-out: Growth Inhibition Percentage (GI %)
NCI/ADR-RES = details: Homo sapiens, ovarian cancer, one dose 10 μM, read-out: Growth Inhibition Percentage (GI %)
NCI-H322M = details: Homo sapiens, NSC lung cancer, one dose 10 μM, read-out: Growth Inhibition Percentage (GI %)
OVCAR-5 = details: Homo sapiens; OVCAR-5, ovarian cancer; one dose 10 μM; read-out: Growth Inhibition Percentage (GI %)
SR = details: Homo sapiens, leukemia, one dose 10 μM, read-out: Growth Inhibition Percentage (GI %)
U251 = details: Homo sapiens, U-251; U251, CNS cancer; one dose 10 μM; read-out: Growth Inhibition Percentage (GI %)
HCT-116 = details: Homo sapiens; HCT-116, colon cancer; one dose 10 μM; read-out: Growth Inhibition Percentage (GI %)
HL-60(TB) = details: Homo sapiens, leukemia, one dose 10 μM, read-out: Growth Inhibition Percentage (GI %)
A498 = details: Homo sapiens; A498, renal cancer; one dose 10 μM; read-out: Growth Inhibition Percentage (GI %)
BT-549 = details: Homo sapiens; BT-549, breast cancer; one dose 10 μM; read-out: Growth Inhibition Percentage (GI %)
UACC-257 = details: Homo sapiens; UACC-257, melanoma; one dose 10 μM; read-out: Growth Inhibition Percentage (GI %)
COLO 205 = details: Homo sapiens; COLO 205, colon cancer; one dose 10 μM; read-out: Growth Inhibition Percentage (GI %)
SF-268 = details: Homo sapiens; SF-268, CNS cancer; one dose 10 μM; read-out: Growth Inhibition Percentage (GI %)
M14 = details: Homo sapiens; M14, melanoma; one dose 10 μM; read-out: Growth Inhibition Percentage (GI %)
LOX IMVI = details: Homo sapiens, melanoma, one dose 10 μM, read-out: Growth Inhibition Percentage (GI %)
NCI-H226 = details: Homo sapiens; NCI-H226, NSC lung cancer; one dose 10 μM; read-out: Growth Inhibition Percentage (GI %)
RXF 393 = details: Homo sapiens; RXF 393, renal cancer; one dose 10 μM; read-out: Growth Inhibition Percentage (GI %)
MDA-MB-468 = details: Homo sapiens; MDA-MB-468, breast cancer; one dose 10 μM; read-out: Growth Inhibition Percentage (GI %)
PC-3 = details: Homo sapiens; PC-3, prostate cancer; one dose 10 μM; read-out: Growth Inhibition Percentage (GI %)
K-562 = details: Homo sapiens, K562; K-562, leukemia; one dose 10 μM; read-out: Growth Inhibition Percentage (GI %)
KM 12 = details: Homo sapiens, KM12; KM 12, colon cancer; one dose 10 μM; read-out: Growth Inhibition Percentage (GI %)

SMILES | inhibition at 10 µM (SW-620) [%] | inhibition at 10 µM (786-0) [%] | inhibition at 10 µM (MCF7) [%] | inhibition at 10 µM (T-47D) [%] | inhibition at 10 µM (MDA-MB-231) [%] | inhibition at 10 µM (IGROV1) [%] | inhibition at 10 µM (TK-10) [%] | inhibition at 10 µM (CCRF-CEM) [%] | inhibition at 10 µM (HCT-15) [%] | inhibition at 10 µM (SNB-75) [%] | inhibition at 10 µM (SK-MEL-2) [%] | inhibition at 10 µM (SK-OV-3) [%] | inhibition at 10 µM (NCI/ADR-RES) [%] | inhibition at 10 µM (NCI-H322M) [%] | inhibition at 10 µM (OVCAR-5) [%] | inhibition at 10 µM (SR) [%] | inhibition at 10 µM (U251) [%] | inhibition at 10 µM (HCT-116) [%] | inhibition at 10 µM (HL-60(TB)) [%] | inhibition at 10 µM (A498) [%] | other results
CCOC(=O)C1=C(N)N(c2ccccc2)C2=C(C(=O)CC(C)(C)C2)C1c1ccc(F)cc1 (racemic) [8a, (±)-Ethyl 2-amino-4–(4-fluorophenyl)-7,7-dimethyl-5-oxo-1-phenyl-1,4,5,6,7,8-hexahydroquinoline-3-carboxylate] | < 10 | < 10 | < 10 | < 10 | < 10 | < 10 | < 10 | < 10 | < 10 | < 10 | < 10 | < 10 | < 10 | < 10 | < 10 | < 10 | < 10 | < 10 | < 10 | < 10 | inhibition at 10 µM (BT-549): < 10%; inhibition at 10 µM (UACC-257): < 10%; inhibition at 10 µM (COLO 205): < 10%; inhibition at 10 µM (SF-268): < 10%; inhibition at 10 µM (M14): < 10%; inhibition at 10 µM (LOX IMVI): < 10%; inhibition at 10 µM (NCI-H226): < 10%; inhibition at 10 µM (RXF 393): < 10%; inhibition at 10 µM (MDA-MB-468): < 10%; inhibition at 10 µM (PC-3): < 10%; inhibition at 10 µM (K-562): < 10%; inhibition at 10 µM (KM 12): < 10%
CCOC(=O)C1=C(N)N(c2ccc(C)cc2)C2=C(C(=O)CC(C)(C)C2)C1c1ccc(Cl)cc1 (racemic) [8d, (±)-Ethyl 2-amino-4–(4-chlorophenyl)-7,7-dimethyl-1–(4-methylphenyl)-5-oxo-1,4,5,6,7,8-hexahydroquinoline-3-carboxylate] | 20 | < 10 | 35 | 16 | < 10 | < 10 | < 10 | < 10 | 35 | 35 | < 10 | < 10 | < 10 | < 10 | < 10 | < 10 | < 10 | 14 | 21 | < 10 | inhibition at 10 µM (BT-549): < 10%; inhibition at 10 µM (UACC-257): < 10%; inhibition at 10 µM (COLO 205): 23%; inhibition at 10 µM (SF-268): < 10%; inhibition at 10 µM (M14): < 10%; inhibition at 10 µM (LOX IMVI): < 10%; inhibition at 10 µM (NCI-H226): < 10%; inhibition at 10 µM (RXF 393): < 10%; inhibition at 10 µM (MDA-MB-468): 18%; inhibition at 10 µM (PC-3): 43%; inhibition at 10 µM (K-562): < 10%; inhibition at 10 µM (KM 12): < 10%
